Measurements taken from ChEMBL document CHEMBL1909046, “DrugMatrix in vitro pharmacology data”.

Experiments:
[1] = target: T1, Alpha-1A adrenergic receptor (Rattus norvegicus, UniProt P43140); assay: DRUGMATRIX: Alpha-1A adrenergic receptor radioligand binding (ligand: prazosin); type: cell membranes, Wistar, Submaxillary gland, Membrane; settings: Not Active = under 50% inhibition at 10 µM; for Ki: read-out: Ki
T1 sequence (P43140 whole entry): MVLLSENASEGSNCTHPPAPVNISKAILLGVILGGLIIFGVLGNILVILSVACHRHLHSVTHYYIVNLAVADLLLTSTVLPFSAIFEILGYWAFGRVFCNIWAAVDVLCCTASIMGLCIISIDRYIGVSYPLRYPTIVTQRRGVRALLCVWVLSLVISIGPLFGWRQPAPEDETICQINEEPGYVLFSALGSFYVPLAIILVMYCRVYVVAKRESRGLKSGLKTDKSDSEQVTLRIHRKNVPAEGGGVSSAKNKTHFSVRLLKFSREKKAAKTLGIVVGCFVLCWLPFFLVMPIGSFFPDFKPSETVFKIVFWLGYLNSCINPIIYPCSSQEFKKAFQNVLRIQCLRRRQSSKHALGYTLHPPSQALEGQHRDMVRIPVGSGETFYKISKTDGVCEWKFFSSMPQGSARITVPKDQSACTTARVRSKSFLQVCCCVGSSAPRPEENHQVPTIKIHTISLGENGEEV

[2] = target: Beta-3 adrenergic receptor (Homo sapiens, UniProt P13945); assay: DRUGMATRIX: Adrenergic beta3 radioligand binding (ligand: [125I] Cyanopindolol); type: cell membranes, HEK293, Membrane; settings: Not Active = under 50% inhibition at 10 µM
Beta-3 adrenergic receptor, sequence (P13945 whole entry): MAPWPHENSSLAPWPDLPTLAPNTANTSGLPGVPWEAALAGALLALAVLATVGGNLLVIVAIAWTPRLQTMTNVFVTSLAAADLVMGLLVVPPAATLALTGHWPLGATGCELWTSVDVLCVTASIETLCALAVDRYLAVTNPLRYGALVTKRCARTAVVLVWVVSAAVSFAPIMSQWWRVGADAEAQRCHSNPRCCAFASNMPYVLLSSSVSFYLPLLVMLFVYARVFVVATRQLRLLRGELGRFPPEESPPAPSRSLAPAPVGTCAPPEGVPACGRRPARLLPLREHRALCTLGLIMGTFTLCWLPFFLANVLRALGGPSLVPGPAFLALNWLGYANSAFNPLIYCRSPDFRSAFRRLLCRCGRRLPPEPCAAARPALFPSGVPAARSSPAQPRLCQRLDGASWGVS

Leukotriene C4 synthase = target: T2, Leukotriene C4 synthase (Cavia porcellus, UniProt A6XA80); type: tissue-based, Lung;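 note: enzyme inhibition assay of leukotriene C4 synthase, using LTA4 as the substrate; in other assays of this panel Not Active means under 50% inhibition at 10 µM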
T2 sequence (A6XA80 whole entry): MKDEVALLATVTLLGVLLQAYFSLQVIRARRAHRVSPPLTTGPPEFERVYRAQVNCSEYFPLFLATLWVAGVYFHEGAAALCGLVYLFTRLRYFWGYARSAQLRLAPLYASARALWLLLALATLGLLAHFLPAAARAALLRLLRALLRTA

[3] = target: T3, Neuropeptide Y receptor type 2 (Homo sapiens, UniProt P49146); type: cell membranes, Membrane; settings: kan-ts; note: in other assays of this panel Not Active means under 50% inhibition at 10 µM
T3 sequence (P49146 whole entry): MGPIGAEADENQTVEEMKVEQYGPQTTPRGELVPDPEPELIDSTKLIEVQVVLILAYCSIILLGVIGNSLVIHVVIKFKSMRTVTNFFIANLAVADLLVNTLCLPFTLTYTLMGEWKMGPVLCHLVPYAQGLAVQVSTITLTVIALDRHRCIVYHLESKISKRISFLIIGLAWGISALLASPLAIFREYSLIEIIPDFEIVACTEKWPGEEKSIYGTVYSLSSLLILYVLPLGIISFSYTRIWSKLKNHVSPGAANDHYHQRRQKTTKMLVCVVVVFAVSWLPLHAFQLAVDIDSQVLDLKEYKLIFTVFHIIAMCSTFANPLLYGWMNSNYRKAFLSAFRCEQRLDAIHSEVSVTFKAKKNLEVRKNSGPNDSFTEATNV

Caspase-1 = target: T4, Caspase-1 (Homo sapiens, UniProt P29466); set-up: species or system Escherichia coli;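 note: Caspase-1 enzyme inhibition assay with a peptide substrate; in other assays of this panel Not Active means under 50% inhibition at 10 µM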
T4 sequence (P29466 whole entry): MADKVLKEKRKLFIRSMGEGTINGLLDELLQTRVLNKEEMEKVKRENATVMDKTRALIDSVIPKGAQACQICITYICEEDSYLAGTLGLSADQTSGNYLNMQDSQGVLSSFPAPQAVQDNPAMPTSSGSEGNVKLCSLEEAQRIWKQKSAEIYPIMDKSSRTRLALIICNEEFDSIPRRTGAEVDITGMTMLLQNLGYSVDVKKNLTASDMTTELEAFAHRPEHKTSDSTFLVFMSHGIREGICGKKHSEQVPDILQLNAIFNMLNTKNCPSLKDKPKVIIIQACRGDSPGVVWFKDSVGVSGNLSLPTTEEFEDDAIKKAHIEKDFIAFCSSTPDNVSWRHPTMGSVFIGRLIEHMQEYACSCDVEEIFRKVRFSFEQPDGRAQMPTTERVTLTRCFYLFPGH

[4] = target: Delta-type opioid receptor (Homo sapiens, UniProt P41143); type: cell membranes, HEK293, Membrane; note: in other assays of this panel Not Active means under 50% inhibition at 10 µM
Delta-type opioid receptor, sequence (P41143 whole entry): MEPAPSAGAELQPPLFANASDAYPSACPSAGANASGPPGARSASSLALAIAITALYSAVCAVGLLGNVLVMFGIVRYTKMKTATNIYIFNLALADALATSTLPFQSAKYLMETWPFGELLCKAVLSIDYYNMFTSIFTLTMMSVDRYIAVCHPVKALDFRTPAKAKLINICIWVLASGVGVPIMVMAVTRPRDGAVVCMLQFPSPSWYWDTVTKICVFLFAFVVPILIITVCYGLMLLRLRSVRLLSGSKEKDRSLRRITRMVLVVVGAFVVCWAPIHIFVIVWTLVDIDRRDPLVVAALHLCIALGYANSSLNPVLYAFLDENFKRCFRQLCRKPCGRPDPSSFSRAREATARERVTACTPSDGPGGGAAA

SMILES	IC50 [1]	IC50 ([2]; hek293)	IC50 (Leukotriene C4 synthase)	IC50 [3]	IC50 (Caspase-1)	IC50 ([4]; hek293)	IC50 ([1]; read-out: IC50)	Ki [1]	IC50 (Caspase-1; read-out: IC50)	IC50 ([2]; read-out: IC50)	Ki ([2]; read-out: Ki)	IC50 ([4]; read-out: IC50)	Ki ([4]; read-out: Ki)
CC(C)(C)NC(=O)[C@@H]1C[C@@H]2CCCC[C@@H]2CN1C[C@@H](O)[C@H](Cc1ccccc1)NC(=O)[C@H](CC(N)=O)NC(=O)c1ccc2ccccc2n1	Not Active	Not Active	Not Active	Not Active	Not Active	–	–	–	–	–	–	–	–
CC(=O)[C@@]1(O)CC[C@H]2[C@@H]3C[C@H](C)C4=CC(=O)CC[C@]4(C)[C@H]3CC[C@@]21C	Not Active	Not Active	Not Active	Not Active	Not Active	Not Active	–	–	–	–	–	–	–
N[C@@H](Cc1ccc(N(CCCl)CCCl)cc1)C(=O)O	Not Active	Not Active	Not Active	Not Active	Not Active	Not Active	–	–	–	–	–	–	–
CCCCc1oc2ccccc2c1C(=O)c1cc(I)c(OCCN(CC)CC)c(I)c1 [AMIODARONE]	Not Active	–	Not Active	Not Active	Not Active	–	–	–	–	–	–	–	–
OCCN(CCO)c1nc(N2CCCCC2)c2nc(N(CCO)CCO)nc(N3CCCCC3)c2n1 [DIPYRIDAMOLE]	Not Active	Not Active	Not Active	Not Active	Not Active	Not Active	–	–	–	–	–	–	–
Cc1oncc1C(=O)Nc1ccc(C(F)(F)F)cc1 [LEFLUNOMIDE]	Not Active	Not Active	Not Active	Not Active	Not Active	Not Active	–	–	–	–	–	–	–
c1ccc([C@H]2CN3CCSC3=N2)cc1 [LEVAMISOLE]	Not Active	Not Active	Not Active	Not Active	Not Active	Not Active	–	–	–	–	–	–	–
N[C@@H](Cc1ccc(O)c(O)c1)C(=O)O [LEVODOPA]	Not Active	Not Active	Not Active	Not Active	Not Active	Not Active	–	–	–	–	–	–	–
N[C@@H](Cc1cc(I)c(Oc2ccc(O)c(I)c2)c(I)c1)C(=O)O [LIOTHYRONINE]	Not Active	Not Active	Not Active	Not Active	Not Active	Not Active	–	–	–	–	–	–	–
O=NN(CCCl)C(=O)NC1CCCCC1 [LOMUSTINE]	Not Active	Not Active	Not Active	Not Active	Not Active	Not Active	–	–	–	–	–	–	–
CCOC(=O)N1CCC(=C2c3ccc(Cl)cc3CCc3cccnc32)CC1 [LORATADINE]	Not Active	Not Active	Not Active	Not Active	Not Active	Not Active	–	–	–	–	–	–	–
Cn1ccnc1S [METHIMAZOLE]	Not Active	Not Active	Not Active	Not Active	Not Active	Not Active	–	–	–	–	–	–	–
CC[C@@H](CO)NC(=O)[C@@H]1C=C2c3cccc4[nH]cc(c34)C[C@H]2N(C)C1 [METHYLERGONOVINE]	Not Active	Not Active	Not Active	Not Active	Not Active	Not Active	–	–	–	–	–	–	–
COc1nc(C)nc(Cl)c1NC1=NCCN1 [MOXONIDINE]	Not Active	Not Active	Not Active	Not Active	Not Active	Not Active	–	–	–	–	–	–	–
COc1c(C)c2c(c(O)c1C/C=C(\C)CCC(=O)O)C(=O)OC2 [MYCOPHENOLIC ACID]	Not Active	Not Active	Not Active	Not Active	Not Active	Not Active	–	–	–	–	–	–	–
O=c1ncn2nc(Sc3ccc(F)cc3F)ccc2c1-c1c(Cl)cccc1Cl [NEFLAMAPIMOD]	Not Active	Not Active	Not Active	Not Active	Not Active	Not Active	–	–	–	–	–	–	–

SMILES	IC50 [1]	IC50 ([2]; hek293)	IC50 (Leukotriene C4 synthase)	IC50 [3]	IC50 (Caspase-1)	IC50 ([4]; hek293)	IC50 ([1]; read-out: IC50)	Ki [1]	IC50 (Caspase-1; read-out: IC50)	IC50 ([2]; read-out: IC50)	Ki ([2]; read-out: Ki)	IC50 ([4]; read-out: IC50)	Ki ([4]; read-out: Ki)
CN1CCN(CCCN2c3ccccc3Sc3ccc(Cl)cc32)CC1 [PROCHLORPERAZINE]	–	Not Active	Not Active	Not Active	Not Active	Not Active	0.032 µM	0.013 µM	–	–	–	–	–
CO[C@H]1/C=C/O[C@@]2(C)Oc3c(C)c(O)c4c(O)c(c(/C=N/N5CCN(C)CC5)c(O)c4c3C2=O)NC(=O)/C(C)=C\C=C\[C@H](C)[C@H](O)[C@@H](C)[C@@H](O)[C@@H](C)[C@H](OC(C)=O)[C@@H]1C [RIFAMPIN]	Not Active	Not Active	Not Active	Not Active	–	Not Active	–	–	8.32 µM	–	–	–	–
Nc1nc2ccc(OC(F)(F)F)cc2s1 [RILUZOLE]	Not Active	Not Active	Not Active	Not Active	Not Active	Not Active	–	–	–	–	–	–	–
Cc1nc2n(c(=O)c1CCN1CCC(c3noc4cc(F)ccc34)CC1)CCCC2 [RISPERIDONE]	–	Not Active	Not Active	Not Active	Not Active	Not Active	–	–	–	–	–	–	–
C=CCC1(C(C)CCC)C(=O)NC(=O)NC1=O (configuration not stated) [SECOBARBITAL]	Not Active	Not Active	Not Active	Not Active	Not Active	Not Active	–	–	–	–	–	–	–
C[C@@H]1CN(c2c(F)c(N)c3c(=O)c(C(=O)O)cn(C4CC4)c3c2F)C[C@H](C)N1 [SPARFLOXACIN]	Not Active	Not Active	Not Active	Not Active	Not Active	Not Active	–	–	–	–	–	–	–
Cc1noc(NS(=O)(=O)c2ccc(N)cc2)c1C [SULFISOXAZOLE]	Not Active	Not Active	Not Active	Not Active	Not Active	Not Active	–	–	–	–	–	–	–
CSc1ccc(/C=C2/C(C)=C(CC(=O)O)c3cc(F)ccc32)cc1 [SULINDAC SULFIDE]	Not Active	Not Active	Not Active	Not Active	Not Active	Not Active	–	–	–	–	–	–	–
Nc1c2c(nc3ccccc13)CCCC2 [TACRINE]	–	Not Active	Not Active	Not Active	Not Active	Not Active	2.75 µM	1.11 µM	–	–	–	–	–
CC/C(=C(\c1ccccc1)c1ccc(OCCN(C)C)cc1)c1ccccc1 [TAMOXIFEN]	–	–	Not Active	Not Active	Not Active	–	22.1 µM	8.92 µM	–	7.7 µM	5.78 µM	13.3 µM	4.7 µM
CC(C)N1CCN(c2ccc(OCC3COC(Cn4cncn4)(c4ccc(Cl)cc4Cl)O3)cc2)CC1 (configuration not stated) [TERCONAZOLE]	–	–	Not Active	Not Active	Not Active	Not Active	13.3 µM	5.37 µM	–	–	–	–	–
Nc1nc2nc[nH]c2c(=S)[nH]1 [THIOGUANINE]	Not Active	Not Active	Not Active	Not Active	Not Active	Not Active	–	–	–	–	–	–	–
Cc1cccc(N(C)C(=S)Oc2ccc3ccccc3c2)c1 [TOLNAFTATE]	Not Active	Not Active	Not Active	Not Active	Not Active	Not Active	–	–	–	–	–	–	–
NC[C@H]1CC[C@H](C(=O)O)CC1 [TRANEXAMIC ACID]	Not Active	Not Active	Not Active	Not Active	Not Active	Not Active	–	–	–	–	–	–	–
CC1(C)O[C@@H]2C[C@H]3[C@@H]4CCC5=CC(=O)C=C[C@]5(C)[C@@]4(F)[C@@H](O)C[C@]3(C)[C@]2(C(=O)CO)O1 [TRIAMCINOLONE ACETONIDE]	Not Active	Not Active	Not Active	Not Active	Not Active	Not Active	–	–	–	–	–	–	–
